From patent publication US7247653B2, “Pharmaceutical composition” (Takeda Pharmaceutical Company Limited, priority 2000, dated 2007) come the findings set out here.

Broadly, the Solubility is the dissolved amount per volume that the medium holds.

≈ marks a conversion by molar mass, not a printed value.

What all share (assay type): physicochemical
Data set [1] is described as follows: Solubility of compound 72 in polyoxyethylene hydrogenated castor oil 50/ethanol solution (Experimental Example 4). As for the experimental part:
Polyoxyethylene hydrogenated castor oil 50/ethanol solution (50 μl) at a ratio (weight ratio) shown in Table 11 was added to compound 72 (5 mg), the mixture was stirred and the solubility was confirmed. The compound 72 dissolved at any mixing ratio, affording a clear solution.

The nature of data set [2]: Solubility of compound 72 in polyoxyethylene glycerol triricinoleate 35/ethanol solution (Experimental Example 1). The following applies: compound 72 (5 mg) in 50 μl polyoxyethylene glycerol triricinoleate 35/ethanol (w/w): 20/80 (Formulation 1), 65/35 (2), 100/0 (3). The method, then:
Polyoxyethylene glycerol triricinoleate 35/ethanol solution (50 μl) at a ratio (weight ratio) shown in Table 7 was added to compound 72 (5 mg), the mixture was stirred and the solubility was confirmed. The compound 72 dissolved at any mixing ratio, affording a clear solution.

Data set [3] is described as follows: Solubility of compound 72 in aqueous maltosyl-β-cyclodextrin, HPLC method (Experimental Example 9). The following applies: 25° C., 3 hr shaking. As for the experimental part: An aqueous solution of maltosyl-β-cyclodextrin (hereinafter abbreviated as G2-β-CyD) at a concentration shown in Table 18 was added to compound 72 (100 mg) and the mixture was shaken at 25° C. for 3 hr. The solution was filtrated through a 0.45 μm filter, and the solubility of compound 72 was quantitatively determined by HPLC method.

A short description of data set [4]: Solubilizing effect of solubilizer on compound 72 (Comparative Example 1): stepwise solvent addition, sonication and vortex mixing. As for the experimental part: Solubilizing Effect of Solubilizer on Compound 72
The solvent (1 ml) shown in Table 6 was added to compound 72 (5 mg), and solubility was confirmed after sonication and vortex mixing. When not dissolved, the solvent (1 ml) was further added, and solubility was confirmed after sonication and vortex mixing in the same manner. The concentration at the time of dissolution was taken as solubility.

Data set [5] can be described thus: Solubility of compound 72 in 40% aqueous 2-hydroxypropyl-β-cyclodextrin (Experimental Example 8). The following applies: HP-β-CyD concentration 40% aqueous solution. As for the experimental part: 40% Aqueous solution of 2-hydroxypropyl-β-cyclodextrin (hereinafter abbreviated as HP-β-CyD) (1 ml) was added to compound 72 (5 mg), and the solubility was confirmed by sonication and vortex mixing. When not dissolved, 40% HP-β-CyD solution (1 ml) was further added, and solubility was confirmed after sonication and vortex mixing in the same manner. The concentration at the time of dissolution was taken as solubility.

As to `CCOC(=O)C1=CCCCC1S(=O)(=O)Nc1ccc(F)cc1Cl` (stereo not drawn) [compound 72, d-ethyl 6-[N-(2-chloro-4-fluorophenyl)sulfamoyl]-1-cyclohexene-1-carboxylate], the Solubility result is “Not less than 100 mg/ml” in data set [1] (compound 72 (5 mg) in 50 μl polyoxyethylene hydrogenated castor oil 50/ethanol (w/w) 20/80); “Not less than 100 mg/ml” in data set [1] (compound 72 (5 mg) in 50 μl polyoxyethylene hydrogenated castor oil 50/ethanol (w/w) 65/35); “not less than 100 mg/ml” in data set [2]; 4.9 mg/mL (≈ 13.5 mM) in data set [3] (G2-β-CyD concentration 10%); 13.0 mg/mL (≈ 35.9 mM) in data set [3] (G2-β-CyD concentration 20%); 31.7 mg/mL (≈ 87.6 mM) in data set [3] (G2-β-CyD concentration 40%). Further, the Solubility result in data set [4] (solvent 10% Pluronic F68 (polyoxyethylene(160)polyoxypropylene(30)glycol), lower concentrations not examined) is “Not more than 0.5 mg/ml”; in data set [4] (solvent 10% ethanol, lower concentrations not examined), “Not more than 0.5 mg/ml”; in data set [4] (solvent 10% nicotinamide, lower concentrations not examined), “Not more than 0.5 mg/ml”; in data set [4] (solvent 10% sodium desoxycholate), “about 0.7 mg/ml”; in data set [4] (solvent 10% sodium salicylate, lower concentrations not examined), “Not more than 0.5 mg/ml”; in data set [4] (solvent water), 0.013 mg/mL (≈ 0.0359 mM). In data set [1] (polyoxyethylene hydrogenated castor oil 50/ethanol, any mixing ratio of Table 11), the “solubility of compound 72 in the solvent used” value was “not less than 100 mg/ml”. Besides, the “Solubility (mg/ml)” value in data set [5] is given as “About 1.7 mg/ml”.
